Measured values from patent US20200315998A1, “COMPOSITION FOR IMPROVING INTESTINAL BARRIER FUNCTION” (SUNTORY HOLDINGS LIMITED, priority 2017, published 2020).

Test system: Caco-2 cells
Assay: Evaluation of intestinal barrier function improvement: TEER reduction suppression in Caco-2 monolayer with inflammatory cytokines (TNFα, IL-1β, IFNγ)
Assay type: cell-based, human
Conditions: for Synergistic effect (M.V./T/V/) / TEER reduction suppression ratio (%) +gallic acid (actual measurement value) (M.V.) / Synergistic effect (M.V./T.V.): combined use of phenolic compound and gallic acid; for TEER reduction suppression ratio (%) +gallic acid (theoretical value) (T.V.): sum of ratios of phenolic compound alone and gallic acid alone
Description: The intestinal barrier function improvement effect is indicated by, for example, increase in the electrical resistance value (transepithelial electric resistance: TEER) of the intestinal epithelial cells or suppression of the decrease in the TEER. A substance increasing the TEER or suppressing the decrease thereof has the action of normalizing or strengthening the tight junction in the intestinal epithelial cells. The intestinal barrier function improvement effect is also indicated by decrease in the amount of a substance permeating from the intestinal side of the intestinal epithelial cells to the inside of the body. The person skilled in the art can select a specific method of evaluating the intestinal barrier function improvement effect depending on the purpose. For exarple, as shown in Examples to be described later, a method for measuring TEER using an intestinal permeation model using human intestinal epithelial cells (Caco-2 cells) can be used. Specifically, inflammatory cytokine (TNFα, IL-1β, IFNγ and the like) is added into Caco-2 monolayer cultured cells to produce a state where the intestinal barrier function can be collapsed in human. If the addition of a test substance suppresses the decrease in the TEER as compared with the case where the substance is not added, the test substance can be evaluated to have the intestinal barrier function improvement effect.
Caco-2 cells were cultured for three weeks at 37° C. in Transwell (manufactured by Millicell Corporation) using DMEM (Dulbecco's modified Eagle's medium). A medium was removed from a plate of cultured Caco-2 cells, and the well was washed 3 times with serum-free DMEM. The well was filled with the medium. Then, the transepithelial electrical resistance (TEER) of Caco-2 monolayer cells was measured by Millicell-ERS (manufactured by Millipore Corporation). Cells (TEER≥1000 Ω·cm^2) determined that a sufficient tight junction was formed were selected, and used for the next screening. Then, to test solutions (media) on both apical and basolateral membrane sides, a sample, TNFα (40 ng/mL), IL-1β (20 ng/mL), and IFNγ (10 ng/mL) were added, followed by cultivating for 48 hours. The sample was dissolved in dimethyl sulfoxide (DMSO), and the solution was then added to the test solutions. In this case, a well to which inflammatory cytokine (TNFα, IL-1β, and IFNγ) and the sample were not added was provided as normal. A well to which inflammatory cytokine was added and the sample was not added was provided as control. After the cultivation, TEER was measured again, to evaluate whether the sample suppressed the reduction (decrease) of TEER due to the inflammatory cytokine.
The TEER reduction suppression ratio (%) due to the sample was determined according to the following formula from the TEER values of the well to which the sample was added, normal, and control.
(Calculating formula of TEER reduction suppression ratio) TEER reduction suppression ratio (%)=100×((TEER of well to which sample is added)−(TEER of control))/((TEER of normal)−(TEER of control))
In this evaluation system, as the TEER reduction suppression ratio (%) is higher, an intestinal barrier function improvement effect is higher.

Compound	Synergistic effect (M.V./T/V/) (each 10 μM)	TEER reduction suppression ratio (%) +gallic acid (actual measurement value) (M.V.) (each 10 μM)	Synergistic effect (M.V./T.V.) (each 1 μM)	TEER reduction suppression ratio (%) +gallic acid (actual measurement value) (M.V.) (each 1 μM)	other results
Oc1cc(O)cc(/C=C/c2ccc(O)c(O)c2)c1 [Piceatannol, piceatannol]	1.1	53%	–	–	–
O=C(O)c1cc(O)c(O)c(O)c1Oc1cc2c(c(O)c1O)-c1c(cc(O)c(O)c1O)C(=O)O[C@@H]1C(COC2=O)O[C@@H](O)C2OC(=O)c3cc(O)c(O)c(O)c3-c3c(cc(O)c(O)c3O)C(=O)OC21 (stereo partly drawn) [Praecoxin A, praecoxin A]	–	–	1.4	104%	–
Oc1cc(O)c2c(c1)O[C@H](c1ccc(O)c(O)c1)[C@H](O)[C@H]2c1c(O)cc(O)c2c1O[C@H](c1ccc(O)c(O)c1)[C@@H](O)C2 [Procyanidin B1, procyanidin B1]	2.4	74%	–	–	TEER reduction suppression ratio (%) +gallic acid (theoretical value) (T.V.) (10 μM each): 31%
Oc1cc(O)c2c(c1)O[C@H](c1ccc(O)c(O)c1)[C@H](O)[C@H]2c1c(O)cc(O)c2c1O[C@H](c1ccc(O)c(O)c1)[C@H](O)C2 [Procyanidin B2, procyanidin B2]	1.5	76%	–	–	TEER reduction suppression ratio (%) +gallic acid (theoretical value) (T.V.) (10 μM each): 51%
Oc1cc(O)c2c(c1)O[C@H](c1ccc(O)c(O)c1)[C@@H](O)[C@@H]2c1c(O)cc(O)c2c1O[C@H](c1ccc(O)c(O)c1)[C@@H](O)C2 [Procyanidin B3, procyanidin B3]	1.9	77%	–	–	TEER reduction suppression ratio (%) +gallic acid (theoretical value) (T.V.) (10 μM each): 53%
O=c1c(O)c(-c2ccc(O)c(O)c2)oc2cc(O)cc(O)c12 [Quercetin, quercetin, reference compound]	1.7	61%	–	–	TEER reduction suppression ratio (sample alone 100 μM, TNFα 40 ng/mL, IL-1β 20 ng/mL, IFNγ 10 ng/mL, 48 hours): 75.0%
O=c1c(O[C@@H]2O[C@H](CO)[C@@H](O)[C@H](O)[C@H]2O)c(-c2ccc(O)c(O)c2)oc2cc(O)cc(O)c12 [Quercetin-3-O-glucopyranoside, quercetin-3-O-glucopyranoside]	1.5	47%	–	–	–
C[C@@H]1O[C@@H](OC[C@H]2O[C@@H](Oc3c(-c4ccc(O)c(O)c4)oc4cc(O)cc(O)c4c3=O)[C@H](O)[C@@H](O)[C@@H]2O)[C@H](O)[C@H](O)[C@H]1O [Rutin, rutin]	2.9	45%	–	–	–
O=C1c2c(O)cc(O)cc2O[C@H](c2ccc(O)c(O)c2)[C@H]1O [Taxifolin, taxifolin]	2.0	59%	–	–	–
O=C(OC1C(OC(=O)c2cc(O)c(O)c(O)c2)[C@H](O)OC2COC(=O)c3cc(O)c(O)c(O)c3-c3c(cc(O)c(O)c3O)C(=O)O[C@H]21)c1cc(O)c(O)c(O)c1 (stereo partly drawn) [Tellimagrandin I, tellimagrandin I]	–	–	1.6	92%	–
O=c1c(O)cc([C@H]2Oc3cc(O)cc(O)c3C[C@H]2O)cc2c([C@H]3Oc4cc(O)cc(O)c4C[C@H]3O)cc(O)c(O)c12 [Theaflavin, theaflavin]	1.6	98%	–	–	–
O=C(O[C@@H]1O[C@H](CO)[C@@H](O)[C@H](O)[C@H]1O)c1cc(O)c(O)c(O)c1 [β-glucogallin]	–	–	2.4	48%	–
catechin [Catechin (CA)]	–	–	–	–	Relative value of TEER reduction suppression ratio (Evaluation 1, sample alone 1 μM, catechin (CA) set to 1.0): 1.0; Synergistic effect (relative value of actual measurement value / relative value of theoretical value) (combined use of the phenolic compound with gallic acid, 1 μM each (Table 1)): 2.0
eugeniflorin D2	–	–	1.3	102%	TEER reduction suppression ratio (%) +gallic acid (theoretical value) (T.V.) (1 μM each): 80%
stenophyllanin A	–	–	1.7	95%	TEER reduction suppression ratio (%) +gallic acid (theoretical value) (T.V.) (1 μM each): 56%
stenophyllanin B	–	–	1.3	82%	TEER reduction suppression ratio (%) +gallic acid (theoretical value) (T.V.) (1 μM each): 66%
